These results are taken from US5545738A, “Alfuzosin hydrochloride dihydrate” (Synthelabo, priority 1993, dated 1996).

Data set [1] in a line: Test on Stability to Heating, Humidifying and Light. Format: physicochemical. The following applies: for stability, overall: conditions of table 1; for moisture content of crystal form: initial, before test. The protocol: The stability test was carried out following the procedures described below.
A 0.3 g-portion of each of the anhydrous form and respective hydrates of alfuzosin hydrochloride in crystal forms was placed in a glass bottle (sealed) and in a desiccator filled with a NaCl saturated solution, and preserved at 70° C. with a heater (Toyama Industry), after which the physicochemical stability of each compound was evaluated by X-ray powder diffraction and high performance liquid chromatography (HPLC).
Separately, 0.3 g of each of the anhydrous form and respective hydrates of alfuzosin hydrochloride in crystal forms was placed in a plastic dish which was then covered with a polyvinylidene chloride film, followed by irradiation with a chemical lamp (dominant wavelength: 365 nm) for 24 hours, for the evaluation of the light stability in the same manner as in the above.
HPLC apparatus (manufactured by Shimazu)
Detection with UV (at 254 nm); column (Nucleosil 5C18, 150 mm×4 mm, M, Nagel; flow rate 1.0 ml/m; room temperature; eluent, NaClO4 (in 1000 ml of water, 7 g, pH 3.5)- acetonitrile-THF (155:55:45): internal standard, p-chloroacetanilide (0.5 mg/ml).

Data set [2] in a line: Hygroscopicity Test (25 °C, various relative humidities, 10 days). Format: physicochemical. The protocol:
A 0.2 g-portion of a sample of each of the anhydrous form and respective hydrates of alfuzosin hydrochloride was placed in a desiccator containing a saturated solution of the salts listed hereunder (at 25° C.), and the relationship between the relative humidity at which the hydrated states of the respective compounds become. stable physically and the hygroscopicity of polymorphic hydrated forms of those compounds was investigated. The respective samples were brought to equilibrium by storage for 10 days under the respective conditions. For the setting up of the relative humidity (RH: %) was used a saturated solution of salts listed below:
RH 0%, dry P2 O5; RH 11%, LiCl; RH 22%, CH3 COOK; RH 33%, MgCl2; RH 43%, K2 CO3.2H2 O; RH 53%, Mg(NO3)2; RH 64%, CoCl2.6H2 O; RH 75%, NaCl; RH 84%, KCl; RH 93%, KNO3; RH 100%, water.

Data set [3] in a line: Drying Test (moisture content and crystal state under drying conditions). The format is physicochemical. The following applies: for loss of water: 1 day. The protocol:
The moisture content was measured with Karl Fischer Aquameter (Kyoto Electron Industry, MK-AII) for about 100 mg of a sample dissolved in methanol for moisture measurement. In turn, the dehydration behavior of the crystal water was measured by thermogravimetry and differential thermal analysis using TG/DTA200 thermogravimetric apparatus and SSC5030 Disc Station (Seiko). Concretely, approximately 5 mg of a sample was weighed into an open aluminum pan and analyzed at a rate of temperature increase of 10° C./m or 1° C./m. This analysis was carried out in a nitrogen atmosphere (flow rate: 100 ml/m).
Different from the hygroscopicity test mentioned above, the various hydrates of alfuzosin hydrochloride were kept under drying conditions for the monitoring of the change in moisture content.
In this connection, simultaneously in the present test, also the crystal state of dried samples after a three-days' drying was investigated for the dihydrate of the present invention by X-ray powder diffraction under drying conditions, for comparison with patterns of X-ray powder diffraction under normal conditions.

Data set [4] is described as follows: overall stability of crystal forms (tests 1-4). Format: physicochemical. The note with it: normal preservation (25° C., RH 40-80%) and heating (50°-60° C.); Hydrochloride Dihydrate.
Data set [5] in a line: Accelerated Test (100 °C and 120 °C, X-ray powder diffraction). Format: physicochemical. The note with it: for crystal form change: 2 hours. The protocol: A 0.3 g-portion of each of the hydrates of alfuzosin hydrochloride was preserved in heaters (Sanyo) set to 100° C. and 120° C., for the confirmation of the stability of the respective hydrates. The physical stability of the respective samples was confirmed by X-ray powder diffraction.
In this test, the crystal state of the respective hydrates was monitored by X-ray powder diffraction every 30 minutes for 2 hours.

Experiment in data set [6]: as above
The format is physicochemical. The note with it: 45 min.

The next data set concerns α1 -adrenergic receptor. The note with it: cited from earlier work.
Setting [7] is: Chemical lamp (365 nm), 24 hours.
Where [8] appears, read: after 70° C., 9 days at RH 75%, hydrochloride.
Where [9] appears, read: after 70° C., 9 days, hydrochloride.
[10] abbreviates: after chemical lamp (365 nm), 24 hours, hydrochloride.

Where a name gives a salt, the structure may show the parent alone. A value given as a limit tells only on which side of the number the result lay.

Consider `COc1cc2nc(N(C)CCCNC(=O)C3CCCO3)nc(N)c2cc1OC` (centres unmarked) [Anhydrous, anhydrous alfuzosin hydrochloride], for which the stability entry in data set [1] (70° C., 9 days) is recorded as “Stable”; in data set [1] (70° C., 9 days at RH 75%) it was “Stable”; in data set [1] (setting [7]) it was “Stable”. Moreover, the moisture content was determined as 0.7% in data set [1] (setting [8]), 1.33% in data set [1] (setting [9]) and 0.66% in data set [1] (setting [10]). Besides, in data set [1] (listed as anhydrous form, hydrochloride), the “stability, overall” value is reported as “extremely stable”. Besides, the “moisture content of crystal form” value in data set [1] (hydrochloride) turned out to be 0.1%. Also, the “relative humidity at which stable” value in data set [2] (25° C., 10 days) is on record as not above 75%. In data set [2] (RH over 75%, 25° C.), the equilibrium moisture content is 12%. In addition, the “moisture content change at RH over 75%” value in data set [2] (RH over 75%, 25° C.) is reported as “increased significantly”. Also, the “moisture content, equivalent moles of water” value in data set [2] (equilibrium, RH over 75%, 25° C.) is 3 moles of water. The “crystal form change on preservation” value in data set [2] (relative humidity exceeding 75%) is “the crystal structure of the anhydrous formchanges, thereby providing a trihydrate”.

Consider `COc1cc2nc(N(C)CCCNC(=O)C3CCCO3)nc(N)c2cc1OC` (centres unmarked) [Dihydrate (DI), Alfuzosin Hydrochloride Dihydrate], for which the dehydration process result in data set [3] (drying conditions) is “goes very slowly”. The “change in moisture content” value in data set [3] (drying conditions, 3 days) is listed as “no significant change in moisture content”. In addition, in data set [3] (three-days' drying, X-ray powder diffraction), the “crystal form after drying” value was “retains its original crystal form, with some drop in degree of crystallization”. The “relative stability among crystal forms” value in data set [4] was “the stablest crystal form”. The time stable in data set [5] (100° C.) is not below 2 h; in data set [5] (120° C.), not below 0.75 h. Moreover, the stability result in data set [1] (70° C., 9 days) is on record as “Stable”; in data set [1] (70° C., 9 days at RH 75%), “Stable”; in data set [1] (setting [7]), “Stable”. Besides, the moisture content in data set [1] (after 70° C., 9 days at RH 75%, Hydrochloride Dihydrate) stood at 8.48%; in data set [1] (after 70° C., 9 days, Hydrochloride Dihydrate), 8.41%; in data set [1] (after chemical lamp (365 nm), 24 hours, Hydrochloride Dihydrate), 8.40%. In data set [1] (Hydrochloride Dihydrate), the “stability, overall” value is on record as “extremely stable”. For the same compound, in data set [1] (Hydrochloride Dihydrate), the “moisture content of crystal form” value is recorded as 8.14%.

Regarding `COc1cc2nc(N(C)CCCNC(=O)C3CCCO3)nc(N)c2cc1OC` (centres unmarked) [Tetrahydrate (TETRA), alfuzosin hydrochloride tetrahydrate], the loss of water result in data set [3] (drying conditions) is listed as “lost most of the water in 1 day”. Further, the results for the crystal form change entry in data set [6] and in data set [5] (100° C.) were “changed into the dihydrate” and “changed into the dihydrate by degrees”, respectively. The crystal form result in data set [5] (100° C., 30 min.) is recorded as “TETRA + DI”. The DI content in data set [1] (70° C., 9 days) is given as 26%; in data set [1] (70° C., 9 days at RH 75%), 98%. The TETRA content in data set [1] (70° C., 9 days) turned out to be 74%; in data set [1] (70° C., 9 days at RH 75%) it was 2%. Further, the moisture content in data set [1] (after 70° C., 9 days) amounted to 13.19%; in data set [1] (after 70° C., 9 days at RH 75%), 8.25%; in data set [1] (after chemical lamp (365 nm), 24 hours) it was 15.18%. Also, the “stability, overall” value in data set [1] is on record as “changed partially into the dihydrate, so they are considered unstable”. The “moisture content of crystal form” value in data set [1] was 14.93%.

With `COc1cc2nc(N(C)CCCNC(=O)C3CCCO3)nc(N)c2cc1OC` (centres unmarked) [Trihydrate (TRI), trihydrate of alfuzosin hydrochloride], the loss of water entry in data set [3] (drying conditions) is “lost most of the water in 1 day”. The crystal form entry in data set [6] (hydrochloride) is on record as “AN + DI + TRI”; in data set [5] (100° C., 30 min., hydrochloride), “TRI”; in data set [5] (100° C., 60 min., hydrochloride) it was “TRI + DI”; in data set [5] (100° C., 90 min., hydrochloride), “TRI + DI”; in data set [5] (100° C., 120 min., hydrochloride), “TRI + DI”. The crystal form change entry in data set [6] (hydrochloride) is “changed into a mixture of the anhydrous form, dihydrate and trihydrate”; in data set [5] (100° C.) it was “changed into the dihydrate by degrees”. Also, the TRI content is reported as 68% in data set [1] (70° C., 9 days) and 84% in data set [1] (70° C., 9 days at RH 75%). In addition, the DI content in data set [1] (70° C., 9 days at RH 75%, hydrochloride) was 16%; in data set [1] (70° C., 9 days, hydrochloride), 37%. The stability entry in data set [1] (setting [7]) is reported as “Stable”. For the same compound, the results for the moisture content in data set [1] (setting [8]), in data set [1] (setting [9]) and in data set [1] (setting [10]) were 12.03%, 11.05% and 12.87%, respectively. Moreover, in data set [1] (hydrochloride), the “stability, overall” value is listed as “changed partially into the dihydrate, so they are considered unstable”. In addition, the “moisture content of crystal form” value in data set [1] (hydrochloride) is given as 12.75%.

Consider `COc1cc2nc(N(C)CCCNC(=O)C3CCCO3)nc(N)c2cc1OC` (centres unmarked) [alfuzosin hydrochloride], for which the “α1 -adrenergic receptor antagonism” value with α1 -adrenergic receptor was “antagonist of α1 -adrenergic receptor”.
